{
  "source": "patent US6962808B2",
  "about": "“Method and apparatus for measurement of the effect of test compounds on signal transduction at the level of biological receptors” (The University of Louisville Research Foundation, priority 1998, dated 2005)",
  "biological_target": "T1, human estrogen receptor binding to ERE (Homo sapiens, UniProt P03372)",
  "T1 construct": "ubiquitin (fusion partner); made in house; host or cells: Saccharomyces cerevisiae strain AF103, YEpE10 plasmid, CUP1 promoter",
  "T1 sequence (P03372 whole entry, the tested form may be a part)": "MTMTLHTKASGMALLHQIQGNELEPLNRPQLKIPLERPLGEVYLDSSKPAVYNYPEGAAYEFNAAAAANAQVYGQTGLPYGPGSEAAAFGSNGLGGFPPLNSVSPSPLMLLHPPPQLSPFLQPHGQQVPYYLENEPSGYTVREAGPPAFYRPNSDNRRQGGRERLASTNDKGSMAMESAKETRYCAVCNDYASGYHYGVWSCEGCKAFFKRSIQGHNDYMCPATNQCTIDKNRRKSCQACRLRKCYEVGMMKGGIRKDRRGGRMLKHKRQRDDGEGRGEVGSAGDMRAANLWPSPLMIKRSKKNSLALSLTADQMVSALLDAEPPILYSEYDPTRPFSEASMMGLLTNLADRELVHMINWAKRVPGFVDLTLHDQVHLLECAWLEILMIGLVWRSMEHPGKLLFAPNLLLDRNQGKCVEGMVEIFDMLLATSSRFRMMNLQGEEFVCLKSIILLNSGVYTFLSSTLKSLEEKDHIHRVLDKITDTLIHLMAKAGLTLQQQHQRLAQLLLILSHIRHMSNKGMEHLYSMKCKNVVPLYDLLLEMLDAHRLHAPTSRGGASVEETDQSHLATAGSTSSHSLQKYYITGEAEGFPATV",
  "assay": "Evanescent fiber optic sensor, ERE fiber, binding of Cy5-tagged hER to the estrogen response element",
  "assay_type": "biochemical",
  "experimental": "This solution comprised said calibration standard of component 6a. […] This receptor preparation was used as the calibration solution. Immediately after preparation it was pipetted in 135 μl aliquots into microcentrifuge tubes, snap frozen and stored at −80° C. They were not thawed again until they were used with the fiber sensor.",
  "data": [
    {"molecule": "C[C@H]1CCCC(=O)CCC/C=C/c2cc(O)cc(O)c2C(=O)O1", "note": "[zearalenone]", "values": [
      {"measurement": "Response of ERE fiber to hER and 10^−6 M compound (control = 3.51)", "setting": "S/C value, control = 3.51", "value": 5.01},
      {"measurement": "effect on binding of hER to the ERE fiber", "setting": "in words, 10^−6 M compound", "value": "increase binding to the ERE more than do the weak biological estrogens"}
    ]}
  ]
}
